{"source": "patent US20250145589A1", "about": "“PYRIDINE DERIVATIVE AND USE THEREOF” (SICHUAN HUIYU PHARMACEUTICAL CO., LTD., priority 2021, published 2025)", "key": {"[1]": {"target": "PI3Kα (Homo sapiens (Human), UniProt P42336)", "sequence (P42336 whole entry)": "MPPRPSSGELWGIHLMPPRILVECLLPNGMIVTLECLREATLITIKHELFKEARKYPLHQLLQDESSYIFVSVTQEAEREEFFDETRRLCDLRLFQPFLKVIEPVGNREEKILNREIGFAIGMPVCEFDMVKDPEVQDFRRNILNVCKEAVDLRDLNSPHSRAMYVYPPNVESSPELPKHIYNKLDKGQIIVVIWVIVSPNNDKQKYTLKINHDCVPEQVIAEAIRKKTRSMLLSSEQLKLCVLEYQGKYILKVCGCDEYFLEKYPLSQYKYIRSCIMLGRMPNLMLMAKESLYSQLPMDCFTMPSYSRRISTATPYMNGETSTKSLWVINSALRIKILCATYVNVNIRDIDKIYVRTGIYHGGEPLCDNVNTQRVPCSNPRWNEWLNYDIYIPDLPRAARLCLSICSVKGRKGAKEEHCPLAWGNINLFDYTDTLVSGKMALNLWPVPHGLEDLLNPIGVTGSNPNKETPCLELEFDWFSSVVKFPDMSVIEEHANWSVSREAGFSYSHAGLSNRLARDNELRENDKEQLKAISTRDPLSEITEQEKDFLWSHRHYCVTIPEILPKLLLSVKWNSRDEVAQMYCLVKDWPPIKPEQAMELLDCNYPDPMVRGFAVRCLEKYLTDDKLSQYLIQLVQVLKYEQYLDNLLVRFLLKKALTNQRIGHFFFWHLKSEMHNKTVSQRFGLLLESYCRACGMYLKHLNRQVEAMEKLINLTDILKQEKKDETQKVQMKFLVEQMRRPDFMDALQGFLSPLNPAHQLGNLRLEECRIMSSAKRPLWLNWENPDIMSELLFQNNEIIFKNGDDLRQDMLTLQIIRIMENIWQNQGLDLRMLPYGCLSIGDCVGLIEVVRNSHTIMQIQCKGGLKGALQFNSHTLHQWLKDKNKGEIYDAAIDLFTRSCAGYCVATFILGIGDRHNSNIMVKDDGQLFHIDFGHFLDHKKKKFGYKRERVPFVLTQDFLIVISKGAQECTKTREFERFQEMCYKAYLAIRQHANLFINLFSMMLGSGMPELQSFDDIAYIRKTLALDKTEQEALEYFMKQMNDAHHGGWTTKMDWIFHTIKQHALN", "sequence (P27986 whole entry partner)": "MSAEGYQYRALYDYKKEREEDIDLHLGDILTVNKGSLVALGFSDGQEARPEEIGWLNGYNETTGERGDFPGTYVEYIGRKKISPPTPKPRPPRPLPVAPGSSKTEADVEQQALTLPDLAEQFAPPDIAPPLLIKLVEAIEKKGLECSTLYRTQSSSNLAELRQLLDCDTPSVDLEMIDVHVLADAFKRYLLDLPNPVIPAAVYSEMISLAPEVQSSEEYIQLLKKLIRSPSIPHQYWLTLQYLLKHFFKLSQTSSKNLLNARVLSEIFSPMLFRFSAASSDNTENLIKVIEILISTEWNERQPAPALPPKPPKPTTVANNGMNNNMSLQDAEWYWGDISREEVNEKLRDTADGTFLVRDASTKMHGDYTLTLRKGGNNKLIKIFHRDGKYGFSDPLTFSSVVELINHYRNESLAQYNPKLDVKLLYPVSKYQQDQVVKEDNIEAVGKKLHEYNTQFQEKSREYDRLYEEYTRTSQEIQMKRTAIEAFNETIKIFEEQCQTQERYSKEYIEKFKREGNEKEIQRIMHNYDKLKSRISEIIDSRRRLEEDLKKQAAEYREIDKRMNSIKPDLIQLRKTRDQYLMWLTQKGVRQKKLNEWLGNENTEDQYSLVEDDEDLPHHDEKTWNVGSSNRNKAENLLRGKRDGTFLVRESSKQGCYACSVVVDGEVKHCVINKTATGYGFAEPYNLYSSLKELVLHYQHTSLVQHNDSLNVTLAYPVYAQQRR", "test": "Inhibition of PI3Kα efficacy assay (ADP-Glo kinase assay)", "assay_type": "biochemical", "details": "Table 4; read-out: PI3Kα inhibitory activity (IC50)", "outline": "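Eight five-fold dilutions of compound (2 mM DMSO stock) tested; kinase reaction with PI and ATP ran 60 min at RT, followed by ADP-Glo and detection reagent steps of 40 min each. Four-parameter logistic fitting gave IC50 values.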"}, "[2]": {"target": "PI3Kδ (Homo sapiens (Human), UniProt O00329)", "sequence (O00329 whole entry)": "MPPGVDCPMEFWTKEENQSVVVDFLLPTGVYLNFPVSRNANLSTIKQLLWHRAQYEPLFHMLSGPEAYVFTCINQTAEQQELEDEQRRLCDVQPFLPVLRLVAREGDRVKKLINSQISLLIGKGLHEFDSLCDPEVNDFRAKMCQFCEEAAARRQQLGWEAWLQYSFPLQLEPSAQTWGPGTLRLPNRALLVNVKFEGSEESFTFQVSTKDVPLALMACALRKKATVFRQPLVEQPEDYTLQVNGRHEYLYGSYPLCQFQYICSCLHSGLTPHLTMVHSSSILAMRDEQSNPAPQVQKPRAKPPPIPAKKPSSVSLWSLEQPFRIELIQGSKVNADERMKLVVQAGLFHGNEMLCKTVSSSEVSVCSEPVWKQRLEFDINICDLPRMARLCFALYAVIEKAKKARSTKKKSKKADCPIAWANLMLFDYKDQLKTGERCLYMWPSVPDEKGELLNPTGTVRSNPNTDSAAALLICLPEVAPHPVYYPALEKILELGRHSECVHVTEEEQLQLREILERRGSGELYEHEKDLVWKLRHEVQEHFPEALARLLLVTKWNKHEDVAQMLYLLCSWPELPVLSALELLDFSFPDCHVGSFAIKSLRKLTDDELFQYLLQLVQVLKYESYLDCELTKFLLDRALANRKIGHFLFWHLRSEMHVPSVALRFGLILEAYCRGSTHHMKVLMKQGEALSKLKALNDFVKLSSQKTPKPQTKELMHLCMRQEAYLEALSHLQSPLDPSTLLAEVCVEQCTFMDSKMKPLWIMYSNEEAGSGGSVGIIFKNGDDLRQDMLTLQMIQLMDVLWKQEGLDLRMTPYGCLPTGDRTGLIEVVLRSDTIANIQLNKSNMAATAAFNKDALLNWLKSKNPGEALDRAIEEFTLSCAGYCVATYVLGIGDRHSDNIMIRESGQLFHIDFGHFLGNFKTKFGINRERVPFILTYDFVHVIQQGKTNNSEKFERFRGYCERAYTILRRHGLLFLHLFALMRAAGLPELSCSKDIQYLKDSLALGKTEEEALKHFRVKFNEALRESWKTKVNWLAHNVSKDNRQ", "sequence (P27986 whole entry partner)": "as the sequence (P27986 whole entry partner) above", "test": "Inhibition of PI3Kδ efficacy assay (ADP-Glo kinase assay)", "assay_type": "biochemical", "details": "Table 4; read-out: PI3Kδ inhibitory activity (IC50)", "outline": "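Luminescent ADP-Glo readout of PI3Kδ: after a 60 min RT reaction with PI/ATP substrate, ATP depletion (40 min) and ADP detection (40 min) steps followed. Compounds tested as eight five-fold serial dilutions; inhibition rates fitted to log(inhibitor) vs. response, variable slope, for IC50.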"}, "[3]": {"target": "KRAS^G12C-SOS1 (Homo sapiens (Human), UniProt P01116, G12C)", "sequence (P01116-2 other isoform, or with tags, fused parts or gaps G12C)": "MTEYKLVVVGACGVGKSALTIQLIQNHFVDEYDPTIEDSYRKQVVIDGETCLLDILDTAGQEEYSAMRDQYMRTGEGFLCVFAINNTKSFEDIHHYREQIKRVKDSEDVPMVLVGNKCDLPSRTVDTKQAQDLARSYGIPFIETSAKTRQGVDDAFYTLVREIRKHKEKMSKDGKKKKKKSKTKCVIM", "test": "HTRF KRAS G12C/SOS1 binding assay", "details": "Table 5", "outline": "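Compound was serially diluted five-fold over eight points, with a 2 mM DMSO stock. After anti-tag-Tb3+ and anti-tag-XL665 were added, plates were incubated 3 h at 4 °C and read by HTRF (ex 337 nm, em 620/665 nm ratio). IC50 values come from four-parameter variable-slope fits.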"}}}
{"compound": "COc1ncc(-c2ccc3ncnc(N4CCN(C(=O)/C=C/C(C)=O)CC4)c3n2)cc1NS(=O)(=O)c1c(F)cccc1Cl", "note": "[Example 225, (E)-2-chloro-6-fluoro-N-(2-methoxy-5-(4-(4-(4-oxopent-2-enoyl)piperazin-1-yl)pyrido[3,2-d]pyrimidin-6-yl)pyridin-3-yl) benzene-sulfonamide]", "values": [{"measurement": "IC50", "setting": "[1]", "result": 0.5, "unit": "nM"}, {"measurement": "IC50", "setting": "[2]", "result": 8.9, "unit": "nM"}, {"measurement": "IC50", "setting": "[3]", "result": 110, "unit": "nM"}]}
{"compound": "COc1ncc(-c2ccc3ncnc(N4CCN(C(=O)/C=C/C(C)=O)[C@H](C)C4)c3n2)cc1NS(=O)(=O)c1ccccc1F", "note": "[Example 228, (R,E)-2-fluoro-N-(2-methoxy-5-(4-(3-methyl-4-(4-oxopent-2-enoyl)piperazin-1-yl)pyrido[3,2-d]pyrimidin-6-yl)pyridin-3-yl)benzene-sulfonamide]", "values": [{"measurement": "IC50", "setting": "[1]", "result": 2.8, "unit": "nM"}, {"measurement": "IC50", "setting": "[2]", "result": 15.9, "unit": "nM"}, {"measurement": "IC50", "setting": "[3]", "result": 294, "unit": "nM"}]}
{"compound": "COc1ncc(-c2ccc3ncnc(C4CCN(C(=O)/C=C/C(C)=O)CC4)c3n2)cc1NS(=O)(=O)c1sc(C)nc1C", "note": "[Example 230, (E)-N-(2-methoxy-5-(4-(1-(4-oxopent-2-enoyl)piperidin-4-yl)pyrido[3,2-d]pyrimidin-6-yl)pyridin-3-yl)-2,4-dimethylthiazol-5-sulfonamide]", "values": [{"measurement": "IC50", "setting": "[1]", "result": 2.6, "unit": "nM"}, {"measurement": "IC50", "setting": "[2]", "result": 4.7, "unit": "nM"}, {"measurement": "IC50", "setting": "[3]", "result": 493, "unit": "nM"}]}
{"compound": "COc1ncc(-c2ccc3ncnc(C4CCN(C(=O)/C=C/C(C)=O)CC4)c3n2)cc1NS(=O)(=O)c1c(F)cc(F)cc1F", "note": "[Example 231, (E)-2,4,6-trifluoro-N-(2-methoxy-5-(4-(1-(4-oxopent-2-enoyl)piperidin-4-yl)pyrido[3,2-d]pyrimidin-6-yl)pyridin-3-yl)benzenesulfonamide]", "values": [{"measurement": "IC50", "setting": "[1]", "result": 3.6, "unit": "nM"}, {"measurement": "IC50", "setting": "[2]", "result": 16.1, "unit": "nM"}, {"measurement": "IC50", "setting": "[3]", "result": 462, "unit": "nM"}]}
{"compound": "COc1ncc(-c2ccc3ncnc(C4CCN(C(=O)/C=C/C(C)=O)CC4)c3n2)cc1NS(=O)(=O)c1ccccc1F", "note": "[Example 232, (E)-2-fluoro-N-(2-methoxy-5-(4-(1-(4-oxopent-2-enoyl)piperidin-4-yl)pyrido[3,2-d]pyrimidin-6-yl)pyridin-3-yl)benzenesulfonamide]", "values": [{"measurement": "IC50", "setting": "[1]", "result": 2, "unit": "nM"}, {"measurement": "IC50", "setting": "[2]", "result": 14.6, "unit": "nM"}, {"measurement": "IC50", "setting": "[3]", "result": 269, "unit": "nM"}]}
{"compound": "COc1ncc(-c2ccc3ncnc(C4CCN(C(=O)/C=C/C(C)=O)CC4)c3n2)cc1NS(=O)(=O)c1c(F)cccc1F", "note": "[Example 233, (E)-2,6-difluoro-N-(2-methoxy-5-(4-(1-(4-oxopent-2-enoyl)piperidin-4-yl)pyrido[3,2-d]pyrimidin-6-yl)pyridin-3-yl)benzenesulfonamide]", "values": [{"measurement": "IC50", "setting": "[1]", "result": 4, "unit": "nM"}, {"measurement": "IC50", "setting": "[2]", "result": 31.3, "unit": "nM"}, {"measurement": "IC50", "setting": "[3]", "result": 204, "unit": "nM"}]}
{"compound": "COc1ncc(-c2ccc3ncnc(C4CCN(C(=O)/C=C/C(C)=O)CC4)c3n2)cc1NS(=O)(=O)c1ccc(F)cc1F", "note": "[Example 234, (E)-2,4-difluoro-N-(2-methoxy-5-(4-(1-(4-oxopent-2-enoyl)piperidin-4-yl)pyrido[3,2-d]pyrimidin-6-yl)pyridin-3-yl)benzenesulfonamide]", "values": [{"measurement": "IC50", "setting": "[1]", "result": 4.2, "unit": "nM"}, {"measurement": "IC50", "setting": "[2]", "result": 20, "unit": "nM"}, {"measurement": "IC50", "setting": "[3]", "result": 292, "unit": "nM"}]}
